# From US20230148599A1, “FUNGICIDAL MIXTURES CONTAINING PYRAZOLE DERIVATIVES” (FMC Corporation, priority 2020, published 2023)
# What was measured:
# Assay type in all cases: in vivo
# Conditions in all cases: 50 ppm, 100 = 100% disease control, 0 = no control
# Septoria tritici = assay: Test A: wheat leaf blotch, preventive spray on wheat seedlings
# Excerpt: (§1) General protocol for preparing test suspensions for Tests A-F: the test compounds were first dissolved in acetone in an amount equal to 3% of the final volume and then suspended at the desired concentration (in ppm) in acetone and purified water (50/50 mix by volume) containing 250 ppm of the surfactant PEG400 (polyhydric alcohol esters). The resulting test suspensions were then used in Tests A-F.
# The test solution was sprayed to the point of run-off on wheat seedlings. The following day the seedlings were inoculated with a spore suspension of Septoria tritici (the causal agent of wheat leaf blotch) and incubated in a saturated atmosphere at 24° C. for 48 h, and then moved to a growth chamber at 20° C. for 17 days, after which time disease ratings were made.
# (§2) A rating of 100 indicates 100% disease control and a rating of 0 indicates no disease control (relative to the controls). A dash (−) indicates the compound was not tested.
# [1] = tested on: Puccinia recondita f. sp. tritici; assay: Test B: wheat leaf rust, preventive spray on wheat seedlings
# Excerpt: as §1
# The test solution was sprayed to the point of run-off on wheat seedlings. The following day the seedlings were inoculated with a spore suspension of Puccinia recondita f. sp. tritici (the causal agent of wheat leaf rust) and incubated in a saturated atmosphere at 20° C. for 24 h, and then moved to a growth chamber at 20° C. for 7 days, after which time disease ratings were made.
# as §2
# [2] = tested on: Blumeria graminis f. sp. tritici; assay: Test C: wheat powdery mildew, preventive spray on wheat seedlings
# Excerpt: as §1
# The test suspension was sprayed to the point of run-off on wheat seedlings. The following day the seedlings were inoculated with a spore dust of Blumeria graminis f. sp. tritici, (also known as Erysiphe graminis f. sp. tritici, the causal agent of wheat powdery mildew) and incubated in a growth chamber at 20° C. for 8 days, after which time visual disease ratings were made.
# as §2
# Phakopsora pachyrhizi = assay: Test D: Asian soybean rust, preventive spray on soybean seedlings
# Excerpt: as §1
# The test solution was sprayed to the point of run-off on soybean seedlings. The following day the seedlings were inoculated with a spore suspension of Phakopsora pachyrhizi (the causal agent of Asian soybean rust) and incubated in a saturated atmosphere at 22° C. for 24 h and then moved to a growth chamber at 22° C. for 8 days, after which time visual disease ratings were made.
# as §2
# Botrytis cinerea = assay: Test E: tomato Botrytis, preventive spray on tomato seedlings
# Excerpt: as §1
# The test suspension was sprayed to the point of run-off on tomato seedlings. The following day the seedlings were inoculated with a spore suspension of Botrytis cinerea (the causal agent of tomato Botrytis) and incubated in a saturated atmosphere at 20° C. for 48 h, and then moved to a growth chamber at 24° C. for 3 days, after which time visual disease ratings were made.
# as §2
# Alternaria solani = assay: Test F: tomato early blight, preventive spray on tomato seedlings
# Excerpt: as §1
# The test suspension was sprayed to the point of run-off on tomato seedlings. The following day the seedlings were inoculated with a spore suspension of Alternaria solani (the causal agent of tomato early blight) and incubated in a saturated atmosphere at 27° C. for 48 h, and then moved to a growth chamber at 20° C. for 3 days, after which time visual disease ratings were made.
# as §2
SMILES,Test A disease control rating (Septoria tritici) [%],Test B disease control rating [1] [%],Test C disease control rating [2] [%],Test D disease control rating (Phakopsora pachyrhizi) [%],Test E disease control rating (Botrytis cinerea) [%],Test F disease control rating (Alternaria solani) [%]
Cc1cc(Cl)c(Nc2c(-c3ccc(F)cc3F)c(C)nn2C)c([N+](=O)[O-])c1 [compound 15],100,100,98,61,99,53
CCc1nn(C)c(Nc2c(Cl)cc(C)cc2[N+](=O)[O-])c1-c1ccc(F)cc1F [compound 16],100,99,98,50,99,0
CCc1nn(C)c(Nc2c(Cl)cccc2[N+](=O)[O-])c1-c1ccc(F)cc1F [compound 17],100,92,94,0,99,9
Cc1nn(C)c(Nc2ccc(F)cc2[N+](=O)[O-])c1-c1ccc(F)cc1Br [compound 20],100,89,92,0,99,26
Cc1nn(C)c(Nc2ccc(Br)cc2[N+](=O)[O-])c1-c1ccc(F)cc1Br [compound 21],100,86,84,0,95,17
Cc1nn(C)c(Nc2ccc(Cl)cc2[N+](=O)[O-])c1-c1c(F)cccc1Cl [compound 22],100,93,97,0,99,64
Cc1cc(Cl)c(Nc2c(-c3c(F)cccc3Cl)c(C)nn2C)c([N+](=O)[O-])c1 [compound 24],100,89,0,0,97,0
Cc1nn(C)c(Nc2c(F)cccc2[N+](=O)[O-])c1-c1c(F)cccc1Cl [compound 25],100,100,99,98,100,98
Cc1ccc(Nc2c(-c3ccc(F)cc3Cl)c(C)nn2C)c([N+](=O)[O-])c1 [compound 26],100,99,94,77,100,68
COc1ccc(-c2c(C)nn(C)c2Nc2c(F)cccc2[N+](=O)[O-])c(Cl)c1 [compound 27],100,100,91,87,100,99
Cc1nn(C)c(Nc2ccc(OC(F)F)cc2[N+](=O)[O-])c1-c1ccc(F)cc1Cl [compound 28],91,68,69,0,99,0
Cc1nn(C)c(Nc2ccc(OCC#N)cc2[N+](=O)[O-])c1-c1ccc(F)cc1Cl [compound 29],97,98,87,81,99,26
Cc1nn(C)c(Nc2cc(F)ccc2[N+](=O)[O-])c1-c1ccc(F)cc1Cl [compound 30],100,86,91,0,67,0
Cc1cc(Cl)c(Nc2c(-c3ccc(F)cc3Cl)c(C)nn2C)c([N+](=O)[O-])c1 [compound 31],100,100,100,98,99,76
Cc1nn(C)c(Nc2cc(F)c(F)cc2[N+](=O)[O-])c1-c1ccc(F)cc1Cl [compound 32],93,85,56,98,99,0
Cc1cc(Cl)cc([N+](=O)[O-])c1Nc1c(-c2ccc(F)cc2Cl)c(C)nn1C [compound 33],100,100,99,92,99,85
COc1ccc(-c2c(C)nn(C)c2Nc2c(Cl)cccc2[N+](=O)[O-])c(C)c1 [compound 35],99,85,0,0,0,0
Cc1nn(C)c(Nc2ccc(OCC(F)F)cc2[N+](=O)[O-])c1-c1ccc(F)cc1Cl [compound 36],100,89,56,25,100,0
Cc1nn(C)c(Nc2c(Cl)cc(Cl)cc2[N+](=O)[O-])c1-c1ccc(F)cc1Br [compound 37],100,100,98,0,88,78
Cc1nn(C)c(Nc2c(Cl)cccc2[N+](=O)[O-])c1-c1c(F)cccc1Cl [compound 38],100,99,95,0,88,0
